From patent US8680111B2 (Pfizer Inc., priority 2012, dated 2014)

Legend:
[1] = molecular target: T1, human recombinant L1196M ALK kinase domain (amino acids 1093-1411) (Homo sapiens, UniProt Q9UM73, L1196M); test: L1196M mutant ALK enzyme assay (microfluidic mobility shift); type: biochemical; settings: ATP 60 μM, 0.5 nM enzyme, competitive inhibition fit; read-out: L1196M ALK enzyme assay (Ki)
T1 construct: ALK kinase domain (amino acids 1093-1411); made in house

[2] = molecular target: T2, human recombinant wild-type ALK kinase domain (amino acids 1093-1411) (Homo sapiens, UniProt Q9UM73); test: Wild-type ALK enzyme assay (microfluidic mobility shift); type: biochemical; settings: ATP 60 μM, competitive inhibition fit, read-out: WT ALK enzyme assay (Ki)
T2 construct: ALK kinase domain (amino acids 1093-1411); made in house
Experimental: The reactions were incubated for 1 h at room temperature, stopped by the addition of 0.1 M EDTA, pH 8, and the extent of reactions (˜15-20% conversion with no inhibitor) was determined after electrophoretic separation of the fluorescently labeled peptide substrate and phosphorylated product on an LabChip EZ Reader II (Caliper Life Sciences, Hopkinton, Mass.).

| Ki [1] | Ki [2] | Compound |
| --- | --- | --- |
| 1070 nM | 540 nM | 7-amino-12-fluoro-3-methoxy-1,16,17-trimethyl-16,17-dihydro-1H-8,4-(azeno)pyrazolo[4,3-h][2,5,11]benzoxadiazacyclotetradecin-15(10H)-one [Example 126] |
| 386 nM | 138 nM | 7-amino-12-fluoro-3-methoxy-1,16,17-trimethyl-16,17-dihydro-1H-8,4-(azeno)pyrazolo[4,3-h][2,5,11]benzoxadiazacyclotetradecin-15(10H)-one [Example 128] |
| 34 nM | 13 nM | CCN1Cc2c(c(C)nn2C)-c2cnc(N)c(c2)OC(C)c2cc(F)ccc2C1=O (single isomer, unassigned) [Example 10, 7-amino-16-ethyl-12-fluoro-1,3,10-trimethyl-16,17-dihydro-1H-8,4-(metheno)pyrazolo[4,3-h][2,5,11]benzoxadiazacyclotetradecin-15(10H)-one] |
| 2.5 nM | < 0.2 nM | CC1Oc2cc(cnc2N)-c2c(nn(C)c2C2CC2)CN(C)C(=O)c2ccc(F)cc21 (single isomer, unassigned) [Example 15, 7-amino-3-cyclopropyl-12-fluoro-2,10,16-trimethyl-16,17-dihydro-2H-8,4-(metheno)pyrazolo[4,3-h][2,5,11]benzoxadiazacyclotetradecin-15(10H)-one] |
| > 2270 nM | 213 nM | CC1Oc2cc(cnc2N)-c2c(nn(C)c2C2CC2)CN(C)C(=O)c2ccc(F)cc21 (single isomer, unassigned) [Example 16, 7-amino-3-cyclopropyl-12-fluoro-2,10,16-trimethyl-16,17-dihydro-2H-8,4-(metheno)pyrazolo[4,3-h][2,5,11]benzoxadiazacyclotetradecin-15(10H)-one] |
| 450 nM | 34 nM | COc1c2c(nn1C)CN(C)C(=O)c1ccc(F)cc1C(C)Oc1cc-2cnc1N (single isomer, unassigned) [Example 20, 7-amino-12-fluoro-3-methoxy-2,10,16-trimethyl-16,17-dihydro-2H-8,4-(metheno)pyrazolo[4,3-h][2,5,11]benzoxadiazacyclotetradecin-15(10H)-one] |
| 14 nM | 4.6 nM | CCC1Oc2cc(cnc2N)-c2c(OC)nn(C)c2CN(C)C(=O)c2ccc(F)cc21 (single isomer, unassigned) [Example 24, 7-amino-10-ethyl-12-fluoro-3-methoxy-1,16-dimethyl-16,17-dihydro-1H-8,4-(metheno)pyrazolo[4,3-h][2,5,11]benzoxadiazacyclotetradecin-15(10H)-one] |
| > 2680 nM | 1010 nM | CC1Oc2nc(cnc2N)-c2c(nn(C)c2C#N)CN(C)C(=O)c2ccc(F)cc21 (single isomer, unassigned) [Example 33, 7-amino-12-fluoro-2,10,16-trimethyl-15-oxo-10,15,16,17-tetrahydro-2H-8,4-(azeno)pyrazolo[4,3-h][2,5,11]benzoxadiazacyclotetradecine-3-carbonitrile] |
| 164 nM | 25.8 nM | CC1Oc2cc(cnc2N)-c2c(nn(C)c2C#N)CN(C)C(=O)c2c(F)cccc21 (single isomer, unassigned) [Example 53, 7-amino-14-fluoro-2,10,16-trimethyl-15-oxo-10,15,16,17-tetrahydro-2H-8,4-(metheno)pyrazolo[4,3-h][2,5,11]benzoxadiazacyclotetradecine-3-carbonitrile] |
| 122 nM | 19.3 nM | COc1nn(C)c2c1-c1cnc(N)c(c1)OC(C)c1cccnc1C(=O)N(C)C2 (single isomer, unassigned) [Example 66, 7-amino-3-methoxy-1,10,16-trimethyl-16,17-dihydro-1H-8,4-(metheno)-pyrazolo[4,3-g]pyrido[2,3-l][1,4,10]oxadiazacyclotetradecin-15(10H)-one] |
| > 1500 nM | 207 nM | CC1Oc2cc(cnc2N)-c2c(C(C)(C)C)nn(C)c2CN(C)C(=O)c2ncccc21 (single isomer, unassigned) [Example 68, 7-amino-3-tert-butyl-1,10,16-trimethyl-16,17-dihydro-1H-8,4-(metheno)pyrazolo[4,3-g]pyrido[2,3-l][1,4,10]oxadiazacyclotetradecin-15(10H)-one] |
| > 3000 nM | > 3000 nM | CC1Oc2cc(cnc2N)-c2c(C(C)(C)C)nn(C)c2CN(C)C(=O)c2ncccc21 (single isomer, unassigned) [Example 69, 7-amino-3-tert-butyl-1,10,16-trimethyl-16,17-dihydro-1H-8,4-(metheno)pyrazolo[4,3-g]pyrido[2,3-l][1,4,10]oxadiazacyclotetradecin-15(10H)-one] |
| > 3000 nM | > 3000 nM | CC1c2nn(C)c(C#N)c2-c2cnc(N)c(n2)OCc2cc(F)ccc2C(=O)N1C (single isomer, unassigned) [Example 80, 7-amino-12-fluoro-2,16,17-trimethyl-15-oxo-10,15,16,17-tetrahydro-2H-8,4-(azeno)pyrazolo[4,3-h][2,5,11]benzoxadiazacyclotetradecine-3-carbonitrile] |
| 90.2 nM | 29.3 nM | CN1Cc2nn(C)c(C#N)c2-c2cnc(N)c(c2)OC(CF)c2cc(F)ccc2C1=O (single isomer, unassigned) [Example 84, 7-amino-12-fluoro-10-(fluoromethyl)-2,16-dimethyl-15-oxo-10,15,16,17-tetrahydro-2H-8,4-(metheno)pyrazolo[4,3-h][2,5,11]benzoxadiazacyclotetradecine-3-carbonitrile] |
| 51 nM | 270 nM | COc1nn(C)c2c1-c1cnc(N)c(c1)OC(CF)c1cc(F)ccc1C(=O)N(C)C2 (single isomer, unassigned) [Example 87, 7-amino-12-fluoro-10-(fluoromethyl)-3-methoxy-1,16-dimethyl-16,17-dihydro-1H-8,4-(metheno)pyrazolo[4,3-h][2,5,11]benzoxadiazacyclotetradecin-15(10H)-one] |
| > 3000 nM | > 3000 nM | CC1Oc2nc(cnc2N)-c2c(nn(C)c2C#N)COCc2ccc(F)cc21 (single isomer, unassigned) [Example 106, 7-amino-12-fluoro-2,10-dimethyl-2,10,15,17-tetrahydro-8,4-(azeno)pyrazolo[4,3-h][2,11,5]benzodioxazacyclotetradecine-3-carbonitrile] |
| > 3000 nM | > 3000 nM | CC1Oc2cc(cnc2N)-c2c(cnn2C)CCCCCOc2ccc(F)cc21 (single isomer, unassigned) [Example 130, 12-fluoro-1,14-dimethyl-1,4,5,6,7,8-hexahydro-14H-16,20-(metheno)-pyrazolo-[4,3-g][1,14,11]benzodioxazacycloheptadecin-17-amine] |
| 794 nM | 78.3 nM | CC1Oc2cc(cnc2N)-c2c(cnn2C)CCCCCOc2ccc(F)cc21 (single isomer, unassigned) [Example 131, 12-fluoro-1,14-dimethyl-1,4,5,6,7,8-hexahydro-14H-16,20-(metheno)-pyrazolo-[4,3-g][1,14,11]benzodioxazacycloheptadecin-17-amine] |
| 2.89 nM | 500 nM | Cn1ncc2c1-c1cnc(N)c(c1)OCc1cc(F)ccc1OCCCCC2 [Example 42, 12-fluoro-1-methyl-1,4,5,6,7,8-hexahydro-14H-16,20-(metheno) pyrazolo[4,3-g][1,14,11]benzodioxazacycloheptadecin-17-amine] |
| 70 nM | 12 nM | Cc1nn(S(=O)(=O)N(C)C)c2c1-c1cnc(N)c(c1)OCc1cc(F)ccc1OCCC2 [Example 44, 7-amino-12-fluoro-N,N,3-trimethyl-17,18-dihydro-10H-8,4-(metheno)-pyrazolo[3,4-e][1,12,9]benzodioxazacyclopentadecine-1(16H)-sulfonamide] |
| > 1500 nM | 411 nM | CC1Oc2cc(cnc2N)-c2c(C(C)(C)C)nn(C)c2CN(C)C(=O)c2ncccc21 (stereo not shown) [Example 67, 7-amino-3-tert-butyl-1,10,16-trimethyl-16,17-dihydro-1H-8,4-(metheno)pyrazolo[4,3-g]pyrido[2,3-l][1,4,10]oxadiazacyclotetradecin-15(10H)-one] |
| 698 nM | 930 nM | CN1Cc2nn(C)c(C#N)c2-c2cnc(N)c(n2)O[C@@H](CF)c2cc(F)ccc2C1=O [Example 94, (10R)-7-amino-12-fluoro-10-(fluoromethyl)-2,16-dimethyl-15-oxo-10,15,16,17-tetrahydro-2H-8,4-(azeno)pyrazolo[4,3-h][2,5,11]benzoxadiazacyclotetradecine-3-carbonitrile] |
| 131 nM | 9.1 nM | C[C@H]1Oc2cc(cnc2N)-c2c(cnc3cccnc23)CN(C)C(=O)c2ccc(F)cc21 [Example 103, (11R)-8-amino-13-fluoro-11,17-dimethyl-17,18-dihydro-9,5-(metheno)-[1,5]naphthyridino[4,3-h][2,5,11]benzoxadiazacyclotetradecin-16(11H)-one] |
| 57.5 nM | 8.4 nM | CC1Oc2nc(cnc2N)-c2c(nn(C)c2C#N)COCc2ccc(F)cc21 (stereo not shown) [Example 104, 7-amino-12-fluoro-2,10-dimethyl-2,10,15,17-tetrahydro-8,4-(azeno)pyrazolo[4,3-h][2,11,5]benzodioxazacyclotetradecine-3-carbonitrile] |
| 179 nM | 88.5 nM | Cn1nc2c(c1C#N)-c1cnc(N)c(n1)OCc1cc(F)ccc1COC2 [Example 107, 7-amino-12-fluoro-2-methyl-2,10,15,17-tetrahydro-8,4-(azeno)pyrazolo[4,3-h][2,11,5]benzodioxazacyclotetradecine-3-carbonitrile] |
| > 1500 nM | 353 nM | CC1Oc2cc(cnc2N)-c2c(cnn2C)CCCCCOc2ccc(F)cc21 (stereo not shown) [Example 129, 12-fluoro-1,14-dimethyl-1,4,5,6,7,8-hexahydro-14H-16,20-(metheno)-pyrazolo-[4,3-g][1,14,11]benzodioxazacycloheptadecin-17-amine] |
